The test system of experiment [1] is ACPA-expressing B cells in peripheral blood of RA patients. As to the kind of experiment: Identification and immunophenotyping of primary ACPA-expressing B cells in peripheral blood of RA patients. In kind it is cell-based, human. The settings on record: median; n = 5; PICs and SA tetramer. How it is done:
Having determined the specificity of CCP-PIC-AF647 and its ability to detect small subpopulations of B cells, we used the combination of PICs to identify and characterize the primary ACPA-expressing B cells in the peripheral blood of five RA patients. […] The median frequency was determined at approximately 0.007% cells out of total B cells (Figure 5A,B). To assess whether the characteristics of the patient’s ACPA-expressing B cells were consistent with previous data, we also examined various B-cell subset-defining markers such as CD20, CD27, IgG-class B-cell receptors, and the activation surface marker CD80 (Figure 5B).
Each dot represents one patient sample. Connected dots depict data from individual patient samples. Statistical differences between groups were determined using the Wilcoxon test. (ns, p > 0.05).
To identify and characterize ACPA-expressing B cells in RA blood, PBMC were isolated from peripheral blood of RA donors as above.
For stimulation experiments, ACPA-expressing Ramos B cells were used. Ramos cells were transduced with ACPA-encoding lentiviral vectors 8. Ramos cells were cultured in RPMI 1640 (Thermofisher) supplemented with 8% FCS, 100 U/ml PS, 2 mM GlutaMax and 10 mM HEPES).
To determine which ratio of CCP and fluorophore in PIC to use, two ratios of CCP-AF647 were tested, i.e. 10:1 and 2:1. […]

Experiment [2] has as its system patient-derived ACPA and immortalized ACPA-expressing B cells. The note with it: cited from earlier work. An excerpt:
To study the application of PICs for the detection of ACPA-expressing B cells, we prepared a set of fluorescently labeled PICs containing CCP and arginine-containing control peptides (CArgP, Figure 1B), as well as tetrameric CCP-SA and CArgP-SA containing the same fluorophores (Figure 1C).[15] […] In CArgP, the citrulline residue that is essential for recognition by ACPA is replaced by an arginine. Besides the ...

The next experiment has as its system B-cell compartments. The settings on record: clinical use; cited from earlier work. An excerpt:
These autoreactive MBCs likely exert pathogenic effector functions through the co-stimulation of T cells, the production of pro-inflammatory cytokines, and the recruitment of neutrophils to sites of the local inflammation.[1] The involvement of these cells in the inflammatory disease process is addi ...

Data on 3 substances can be found in publication PMC9006213, “Multifunctional, Multivalent PIC Polymer Scaffolds for Targeting Antigen-Specific, Autoreactive B Cells” (ACS Biomaterials Science & Engineering, 2022).

In the case of polyisocyanopeptides [PICs], in experiment [1], the “ACPA-expressing B cells positive for memory B cell markers CD20 and CD27” value stood at 50%.
For cyclic citrullinated peptide [CCP], the “recognition by ACPA and ACPA-expressing B cells” value in experiment [2] was “recognized by both patient-derived ACPA and immortalized ACPA-expressing B cells”.
As to “Rituximab: broadly B-cell depleting agent approved for clinical use”, the “depletion of B-cell compartments” value in the experiment with B-cell compartments was “depletes the naïve and MBC compartments but leaves the compartment of antibody-secreting cells largely intact”.
